# In patent publication US20150216189A1, “NATAMYCIN-CYCLODEXTRIN COMPLEXES FOR USE IN FOODSTUFF, PROCESS FOR THEIR MANUFACTURE AND USE THEREOF” (priority 2011, published 2015):
# What was measured:
# mould = experiment: Tortilla spray application shelf life study (mould growth); conditions: 21.7° C., no natamycin (variables 2, 3)
# Protocol: A gamma-cyclodextrin-natamycin solution was produced employing a high pH system and the obtained solution was spray dried. Tortillas were treated with a standard natamycin (Natamax® SF) treatment, the spray-dried gamma-cyclodextrin-natamycin product, and traditional chemical preservatives to assess relative antifungal efficacy in baked goods.
# Sample Variables in the Tortilla Treatments: • 1. Control—Deionized Water • 2. Control—Gamma-cyclodextrin (0.5% solution) • 3. Traditional Chemical Preservatives (fumarate, sorbate, propionate) • 4. Natamax® SF (target of ˜12 ppm natamycin on finished product) • 5. Gamma-cyclodextrin-natamycin powder (target of ˜12 ppm natamycin on finished product) • 6. Gamma-cyclodextrin-natamycin powder (target of ˜6 ppm natamycin on finished product)
# For the spray application, each of the solutions were sprayed on 36 tortillas (about seven inches in diameter) using roughly the same spray volume. The tortillas were held on standard storage racks at 21.7° C. and monitored 0 to 30 days for mould growth.
# [1] = Antifungal activity on baked goods
# From the text: Studies were done wherein aqueous solutions of natamycin-cyclodextrin complexes have been applied onto shredded cheese or used in pharmaceutical preparations.
# yeasts and moulds = conditions: cited from earlier work
# [2] = cited from earlier work
# [3] = From the text: Natamycin is sensitive to both high and low pH values and is degraded under such conditions. Despite this fact, the present invention utilizes such pH ranges. […] Typically the pH value is in the range of 10 to 12. In another embodiment the pH value of the aqueous solution in the complexation step is in the range of 6 or lower, preferably 1 to 4. Typically the pH value is lower than 4, such as in the range of 3 to 4. […] The tests in FIG. 1 and FIG. 2 were made through mixing natamycin (1%) and cyclodextrin (1%) with water (98%)
structure (smiles),measurement,setting,value
"OC[C@H]1O[C@@H]2O[C@H]3[C@H](O)[C@@H](O)[C@@H](O[C@H]4[C@H](O)[C@@H](O)[C@@H](O[C@H]5[C@H](O)[C@@H](O)[C@@H](O[C@H]6[C@H](O)[C@@H](O)[C@@H](O[C@H]7[C@H](O)[C@@H](O)[C@@H](O[C@H]8[C@H](O)[C@@H](O)[C@@H](O[C@H]9[C@H](O)[C@@H](O)[C@@H](O[C@H]1[C@H](O)[C@H]2O)O[C@@H]9CO)O[C@@H]8CO)O[C@@H]7CO)O[C@@H]6CO)O[C@@H]5CO)O[C@@H]4CO)O[C@@H]3CO [Variable 2, Gamma-cyclodextrin]",Number of moulded tortillas,mould; Day 0,0
same,Number of moulded tortillas,mould; Day 5,20
same,Number of moulded tortillas,mould; Day 6,25
same,Number of moulded tortillas,mould; Day 7,26
same,Number of moulded tortillas,mould; Day 8,28
same,Number of moulded tortillas,mould; Day 9,28
same,Number of moulded tortillas,mould; Day 12,30
same,Number of moulded tortillas,mould; Day 13,30
same,Number of moulded tortillas,mould; Day 14,30
same,Number of moulded tortillas,mould; Day 15,30
same,Number of moulded tortillas,mould; Day 16,30
same,Number of moulded tortillas,mould; Day 19,30
same,Number of moulded tortillas,mould; Day 20,30
same,Number of moulded tortillas,mould; Day 21,30
same,Number of moulded tortillas,mould; Day 26,30
same,Number of moulded tortillas,mould; Day 27,30
same,Number of moulded tortillas,mould; Day 28,30
same,Number of moulded tortillas,mould; Day 29,30
same,Number of moulded tortillas,mould; Day 30,30
same,antifungal activity when applied on baked goods,[1],no antifungal activity
C[C@@H]1C/C=C/C=C/C=C/C=C/[C@H](O[C@@H]2O[C@H](C)[C@@H](O)[C@H](N)[C@@H]2O)C[C@@H]2O[C@](O)(C[C@@H](O)C[C@H]3O[C@@H]3/C=C/C(=O)O1)C[C@H](O)[C@H]2C(=O)O [Natamycin],concentrations inhibiting most strains,yeasts and moulds,1-40 ppm
same,maximum water solubility,[2],around 40 ppm
same,percentage of solubilized natamycin,[3],lower than 4%
